# Results from US8729264B2, “Agent for prevention and/or treatment of skin diseases” (Kyowa Hakko Kirin Co., Ltd., priority 2007, dated 2014).
# Test system: dinitrofluorobenzene-induced ear edema
# Test: Suppressive action on dinitrofluorobenzene-induced ear edema reaction in mouse
# Type: in vivo, BALB/c mice (printed BALE/c)
# Conditions: topical, test compound 1% (w/v) in acetone applied to front and back of auricle 1 hr before and 3 hr after induction, auricle thickness 24 hr after induction, female mice, read-out: ear edema suppressive rate (%)
# Description: 5-Week to 6-week old BALE/c mice (female, supplied by CHARLES RIVER LABORATORIES JAPAN, INC) were purchased and, after quarantine and habituation, those showing satisfactory body weight increase and free of abnormal appearance were used to start the test from 7 weeks of age. The animals were housed and bred in plastic cages (6 mice per cage) in a breeding chamber set at room temperature 19-25° C., humidity 30-70%, 12 hr illumination per day (7 a.m.-7 p.m.), with free access to a commercially available solid feed and water.
# One day before the test, the abdomen was shaved, and a solution of dinitrofluorobenzene (manufactured by Nacalai Tesque) in acetone (manufactured by Wako Pure Chemical Industries, Ltd.) {concentration 0.5% [weight (w)/volume (v) %]} was applied to the shaved part of BALE/c mice by 100 μL for sensitization. On day 5 after sensitization, a dinitrofluorobenzene-acetone solution [concentration 0.2% (w/v %)] was applied to the front and the back of the auricle by 10 μL each (total 20 μL) to induce reaction. A test compound dissolved in acetone to the concentration of 1% (w/v %) was applied to the front and the back of the auricle 1 hr before and 3 hr after the induction of reaction each by 10 μL or 40 μL (total 20 μL or 80 μL). After the application, the applied part was air-dried by a dryer.
# A group administered with the test compound by coating was taken as a test compound administration group, and a group administered with acetone (solvent) by coating instead of the test compound was taken as a solvent administration group. In addition, a group free of sensitization and induction of reaction and administered with acetone by coating instead of the test compound was taken as a normal group. The thickness of the auricle was measured immediately before induction of reaction and 24 hr after the induction with a dial thickness gauge (manufactured by OZAKI MFG. CO., LTD., G-1A), and the difference between them was taken as ear edema. The ear edema suppressive rate (%) was calculated according to the following formula.
row,Structure (SMILES),inhibition in vivo at 1 % [%]
1,"CS(=O)(=O)NC(=O)c1cnn2c(NCc3ccccc3)c(C(=O)N3CCC(c4ccccc4)CC3)cnc12 [a-1, N-[7-Benzylamino-6-(4-phenylpiperidine-1-carbonyl)pyrazolo[1,5-a]pyrimidine-3-carbonyl]methanesulfonamide]",20
2,"CCS(=O)(=O)NC(=O)c1cnn2c(Nc3ccc(F)cc3C)c(C(=O)N3CCC(c4ccccc4)CC3)cnc12 [a-57, N-[7-(4-Fluoro-2-methylphenylamino)-6-(4-phenylpiperidine-1-carbonyl)pyrazolo[1,5-a]pyrimidine-3-carbonyl]ethanesulfonamide]",35
3,"CCS(=O)(=O)NC(=O)c1cnn2c(Nc3cc(C)ccc3F)c(C(=O)N3CCC(c4ccccc4)CC3)cnc12 [a-59, N-[7-(2-Fluoro-5-methylphenylamino)-6-(4-phenylpiperidine-1-carbonyl)pyrazolo[1,5-a]pyrimidine-3-carbonyl]ethanesulfonamide]",6
4,"CCS(=O)(=O)NC(=O)c1cnn2c(Nc3cc(C)ccc3F)c(C(=O)N3CCC(c4ccc(F)cc4)CC3)cnc12 [a-81, N-{7-(2-Fluoro-5-methylphenylamino)-6-[4-(4-fluorophenyl)piperidine-1-carbonyl]pyrazolo[1,5-a]pyrimidine-3-carbonyl}ethanesulfonamide]",25
5,"CCS(=O)(=O)NC(=O)c1cnn2c(Nc3ccc(F)cc3C)c(C(=O)N3CCC(c4ccc(F)cc4)CC3)cnc12 [a-84, N-{7-(4-Fluoro-2-methylphenylamino)-6-[4-(4-fluorophenyl)piperidine-1-carbonyl]pyrazolo[1,5-a]pyrimidine-3-carbonyl}ethanesulfonamide]",25
6,"CS(=O)(=O)NC(=O)c1cnn2c(NCc3ccccc3)c(C(=O)N3CCC(F)(c4ccccc4)CC3)cnc12 [a-96, N-[7-Benzylamino-6-(4-fluoro-4-phenylpiperidine-1-carbonyl)pyrazolo[1,5-a]pyrimidine-3-carbonyl]methanesulfonamide]",10
7,"O=C(NS(=O)(=O)C1CC1)c1cnn2c(NCc3ccccc3)c(C(=O)N3CCC4(CC3)COc3ccccc34)cnc12 [a-126, N-[7-Benzylamino-6-(2H-spiro[benzofuran-3,4′-piperidine]-1′-ylcarbonyl)pyrazolo[1,5-a]pyrimidine-3-carbonyl]cyclopropanesulfonamide]",10
8,"CCS(=O)(=O)NC(=O)c1cnn2c(Nc3cc(C)ccc3C)c(C(=O)N3CCC4(CC3)COc3cc(F)ccc34)cnc12 [a-137, N-[7-(2,5-Dimethylphenylamino)-6-(6-fluoro-2H-spiro[benzofuran-3,4′-piperidine]-1′-ylcarbonyl)pyrazolo[1,5-a]pyrimidine-3-carbonyl]ethanesulfonamide]",5
